Measurements: patent publication US7166738B2, “Non-nucleoside reverse transcriptase inhibitors” (Roche Palo Alto LLC, priority 2004, dated 2007)
Like-named read-outs stand apart in the source and are kept apart here.

Key:
HIV-1 RT = HIV-1 RT (Human immunodeficiency virus type 1 group M subtype B, UniProt P03366); test: HIV Reverse Transcriptase Assay: Inhibitor IC50 Determination; type: biochemical
Description: HIV Reverse Transcriptase Assay: Inhibitor IC50 Determination
HIV-1 RT assay was carried out in 96-well Millipore MultiScreen MADVNOB50 plates using purified recombinant enzyme and a poly(rA)/oligo(dT)16 template-primer in a total volume of 50 μL. The assay constituents were 50 mM Tris/HCl, 50 mM NaCl, 1 mM EDTA, 6 mM MgCl2, 5 μM dTTP, 0.15 μCi [^3H] dTTP, 5 μg/ml poly (rA) pre annealed to 2.5 μg/ml oligo (dT)16 and a range of inhibitor concentrations in a final concentration of 10% DMSO. Reactions were initiated by adding 4 nM HIV-1 RT and after incubation at 37° C. for 30 min, they were stopped by the addition of 50 μl ice cold 20% TCA and allowed to precipitate at 4° C. for 30 min. The precipitates were collected by applying vacuum to the plate and sequentially washing with 3×200 μl of 10% TCA and 2×200 μl 70% ethanol. Finally, the plates were dried and radioactivity counted in a Packard TopCounter after the addition of 25 μl scintillation fluid per well. IC50's were calculated by plotting % inhibition versus log10 inhibitor concentrations.

HIV = test: Anti-viral Assay (method of Pauwels et al.); type: cell-based; settings: Human immunodeficiency virus 1
Description: Anti-viral assays were carried out by the method described by R. E. Pauwels et al. J. Virol. Methods 1988 20(4):309–322.

[1] = purified recombinant enzyme, poly(rA)/oligo(dT)16 template-primer, 37° C. 30 min, read-out: RT inhibition

| SMILES | melting point [°C] | IC50 (HIV-1 RT; [1]) [nM] | EC50 (HIV) [nM] | IC50 (HIV-1 RT) [nM] |
| --- | --- | --- | --- | --- |
| CCc1ccc(CC(=O)Nc2ccc(S(N)(=O)=O)cc2Cl)c(F)c1Oc1cc(C#N)cc(C(F)F)c1 [Compound I-179, N-(2-Chloro-4-sulfamoyl-phenyl)-2-[3-(3-cyano-5-difluoromethyl-phenoxy)-4-ethyl-2-fluoro-phenyl]-acetamide] | 239.6 to 240.7 | 7.4 | 0.4 | – |
| Cc1cc(S(N)(=O)=O)ccc1NC(=O)Cc1ccc(Br)c(Oc2cc(C#N)cc(C(F)F)c2)c1F [Compound I-169, 2-[4-Bromo-3-(3-cyano-5-difluoromethyl-phenoxy)-2-fluoro-phenyl]-N-(2-methyl-4-sulfamoyl-phenyl)-acetamide] | 223.9 to 225 | 27 | 0.4 | – |
| N#Cc1cc(Oc2c(Br)ccc(CC(=O)Nc3ccc(S(N)(=O)=O)cc3Cl)c2F)cc(C(F)F)c1 [Compound I-165, 2-[4-Bromo-3-(3-cyano-5-difluoromethyl-phenoxy)-2-fluoro-phenyl]-N-(2-chloro-4-sulfamoyl-phenyl)-acetamide] | 205.4 to 207.7 | 21 | 0.4 | – |
| CCc1ccc(CC(=O)Nc2ccc(S(N)(=O)=O)cc2Cl)cc1Oc1cc(C#N)cc(C(F)F)c1 [Compound I-140, N-(2-Chloro-4-sulfamoyl-phenyl)-2-[3-(3-cyano-5-difluoromethyl-phenoxy)-4-ethyl-phenyl]-acetamide] | 191.8 to 192.5 | 21 | 0.4 | – |
| N#Cc1cc(Cl)cc(Oc2c(Br)ccc(CC(=O)Nc3ccc(S(N)(=O)=O)cc3Cl)c2F)c1 [Compound I-109, 2-[4-Bromo-3-(3-chloro-5-cyano-phenoxy)-2-fluoro-phenyl]-N-(2-chloro-4-sulfamoyl-phenyl)-acetamide] | 165 to 166.6 | – | 1.3 | 13.6 |
| Cc1ccc(CC(=O)Nc2ccc(S(N)(=O)=O)cc2Cl)c(F)c1Oc1cc(Cl)cc(C#N)c1 [Compound I-83, 2-[3-(3-Chloro-5-cyano-phenoxy)-2-fluoro-4-methyl-phenyl]-N-(2-chloro-4-sulfamoyl-phenyl)-acetamide] | 228.9 to 230.6 | 8.1 | 0.9 | – |
